This assay is described as follows: Inhibition of PAF-induced platelet aggregation.

The values below come from BindingDB's records for doi:10.1021/jm00072a019 (J. Uriach & Cía., 1993).

Structures are written as SMILES.

As a reminder, the IC50 is the point on the concentration scale where inhibition reaches its midpoint. A low value points to higher potency. `Cc1ncccc1C(C#N)N1CCN(C(=O)CC(NC(N)=O)c2ccccc2)CC1` (stereo not drawn) [(3-{4-[Cyano-(2-methyl-pyridin-3-yl)-methyl]-piperazin-1-yl}-3-oxo-1-phenyl-propyl)-urea]: inhibition was half-maximal at 470 nM (IC50).

With `Cc1ncccc1C(C#N)N1CCN(C(=O)CC(NC(=O)OC(C)(C)C)c2ccccc2)CC1` (stereo not drawn) [(3-{4-[Cyano-(2-methyl-pyridin-3-yl)-methyl]-piperazin-1-yl}-3-oxo-1-phenyl-propyl)-carbamic acid tert-butyl ester], the IC50 amounted to 56 nM. The compound `C#CC(c1cccnc1C)N1CCN(C(=O)CNC(c2ccccc2)c2ccccc2)CC1` (stereo not drawn) [2-(Benzhydryl-amino)-1-{4-[1-(2-methyl-pyridin-3-yl)-prop-2-ynyl]-piperazin-1-yl}-ethanone] returned an IC50 of 860 nM. The value for `Cc1ncccc1C(C#N)N1CCN(C(=O)C=C(c2ccccc2)c2ccccc2)CC1` (stereo not drawn) [[4-(3,3-Diphenyl-acryloyl)-piperazin-1-yl]-(2-methyl-pyridin-3-yl)-acetonitrile] was 26 nM; that for `Cc1ncccc1C(C#N)N1CCN(C(=O)CN(C=O)C(c2ccccc2)c2ccccc2)CC1` (stereo not drawn) [N-Benzhydryl-N-(2-{4-[cyano-(2-methyl-pyridin-3-yl)-methyl]-piperazin-1-yl}-2-oxo-ethyl)-formamide] was 30 nM. The value for `Cc1ncccc1C(C#N)N1CCN(C(=O)CC(O)(c2ccccc2)c2ccccc2)CC1` (stereo not drawn) [[4-(3-Hydroxy-3,3-diphenyl-propionyl)-piperazin-1-yl]-(2-methyl-pyridin-3-yl)-acetonitrile] was 17 nM; that for `Cc1ncccc1C(C#N)N1CCN(C(=O)CC(NC(=O)OCc2ccccc2)c2ccccc2)CC1` (stereo not drawn) [(3-{4-[Cyano-(2-methyl-pyridin-3-yl)-methyl]-piperazin-1-yl}-3-oxo-1-phenyl-propyl)-carbamic acid benzyl ester] was 22 nM. Turning to `Cc1ncccc1C(C#N)N1CCN(C(=O)COC(c2ccccc2)c2ccccc2)CC1` (stereo not drawn) [[4-(2-Benzhydryloxy-acetyl)-piperazin-1-yl]-(2-methyl-pyridin-3-yl)-acetonitrile], the IC50 was 42 nM. The value for `Cc1ncccc1C(C#N)N1CCN(C(=O)CC(NC(=O)Oc2ccccc2)c2ccccc2)CC1` (stereo not drawn) [(3-{4-[Cyano-(2-methyl-pyridin-3-yl)-methyl]-piperazin-1-yl}-3-oxo-1-phenyl-propyl)-carbamic acid phenyl ester] was 16 nM; that for `COC(=O)N(C)C(CC(=O)N1CCN(C(C#N)c2cccnc2C)CC1)c1ccccc1` (stereo not drawn) [(3-{4-[Cyano-(2-methyl-pyridin-3-yl)-methyl]-piperazin-1-yl}-3-oxo-1-phenyl-propyl)-methyl-carbamic acid methyl ester] was 20 nM; that for `Cc1ncccc1C(C#N)N1CCN(C(=O)CC(c2ccccc2)c2ccccc2)CC1` (stereo not drawn) [[4-(3,3-Diphenyl-propionyl)-piperazin-1-yl]-(2-methyl-pyridin-3-yl)-acetonitrile] was 18 nM. The value for `Cc1ncccc1C(C#N)N1CCN(C(=O)CNC2c3ccccc3-c3ccccc32)CC1` (stereo not drawn) [{4-[2-(9H-Fluoren-9-ylamino)-acetyl]-piperazin-1-yl}-(2-methyl-pyridin-3-yl)-acetonitrile] was 50 nM; that for `CCOC(=O)NC(CC(=O)N1CCN(C(C#N)c2cccnc2C)CC1)c1ccccc1` (stereo not drawn) [(3-{4-[Cyano-(2-methyl-pyridin-3-yl)-methyl]-piperazin-1-yl}-3-oxo-1-phenyl-propyl)-carbamic acid ethyl ester] was 14 nM. The same measure for `Cc1ncccc1C(C#N)N1CCN(C(=O)CC(N)c2ccccc2)CC1` (stereo not drawn) [[4-(3-Amino-3-phenyl-propionyl)-piperazin-1-yl]-(2-methyl-pyridin-3-yl)-acetonitrile]: 740 nM.

As for `Cc1ncccc1C(C#N)N1CCN(C(=O)CC(NCc2cccnc2)c2ccccc2)CC1` (stereo not drawn) [(2-Methyl-pyridin-3-yl)-(4-{3-phenyl-3-[(pyridin-3-ylmethyl)-amino]-propionyl}-piperazin-1-yl)-acetonitrile], it took 75 nM to reach half-maximal inhibition (IC50).

For `Cc1ncccc1C(C#N)N1CCN(C(=O)CSC(c2ccccc2)c2ccccc2)CC1` (stereo not drawn) [[4-(2-Benzhydrylsulfanyl-acetyl)-piperazin-1-yl]-(2-methyl-pyridin-3-yl)-acetonitrile], half-maximal inhibition (IC50) was put at 79 nM. The same measure for `Cc1ncccc1C(C#N)N1CCN(C(=O)CNC(C)(c2ccccc2)c2ccccc2)CC1` (stereo not drawn) [{4-[2-(1,1-Diphenyl-ethylamino)-acetyl]-piperazin-1-yl}-(2-methyl-pyridin-3-yl)-acetonitrile]: 86 nM; for `CNC(CC(=O)N1CCN(C(C#N)c2cccnc2C)CC1)c1ccccc1` (stereo not drawn) [[4-(3-Methylamino-3-phenyl-propionyl)-piperazin-1-yl]-(2-methyl-pyridin-3-yl)-acetonitrile]: 11 nM.

Take `Cc1ncccc1C(C#N)N1CCN(C(=O)CC(c2ccccc2)N(Cc2ccccc2)Cc2ccccc2)CC1` (stereo not drawn) [[4-(3-Dibenzylamino-3-phenyl-propionyl)-piperazin-1-yl]-(2-methyl-pyridin-3-yl)-acetonitrile]: it took 41 nM to reach half-maximal inhibition (IC50). The value for `Cc1ncccc1C(C#N)N1CCN(C(=O)[C@H](CO)NC(c2ccccc2)c2ccccc2)CC1` (stereo partly drawn) [{4-[2-(Benzhydryl-amino)-3-hydroxy-propionyl]-piperazin-1-yl}-(2-methyl-pyridin-3-yl)-acetonitrile] was 34 nM; that for `COC(=O)NC(CC(=O)N1CCN(C(C#N)c2cccnc2C)CC1)c1ccc(C(F)(F)F)cc1` (stereo not drawn) [[3-{4-[Cyano-(2-methyl-pyridin-3-yl)-methyl]-piperazin-1-yl}-3-oxo-1-(4-trifluoromethyl-phenyl)-propyl]-carbamic acid methyl ester] was 12 nM; that for `Cc1ncccc1C(C#N)N1CCN(C(=O)CNC(c2ccc(F)cc2)c2ccc(F)cc2)CC1` (stereo not drawn) [[4-(2-{[Bis-(4-fluoro-phenyl)-methyl]-amino}-acetyl)-piperazin-1-yl]-(2-methyl-pyridin-3-yl)-acetonitrile] was 150 nM. The value for `C=CCNC(CC(=O)N1CCN(C(C#N)c2cccnc2C)CC1)c1ccccc1` (stereo not drawn) [[4-(3-Allylamino-3-phenyl-propionyl)-piperazin-1-yl]-(2-methyl-pyridin-3-yl)-acetonitrile] was 18 nM. For the compound `Cc1ncccc1C(C#N)N1CCN(C(=O)[C@H](C)NC(c2ccccc2)c2ccccc2)CC1` (stereo partly drawn) [{4-[2-(Benzhydryl-amino)-propionyl]-piperazin-1-yl}-(2-methyl-pyridin-3-yl)-acetonitrile], the IC50 is 13 nM. The same measure for `CC(=O)NC(CC(=O)N1CCN(C(C#N)c2cccnc2C)CC1)c1ccccc1` (stereo not drawn) [N-(3-{4-[Cyano-(2-methyl-pyridin-3-yl)-methyl]-piperazin-1-yl}-3-oxo-1-phenyl-propyl)-acetamide]: 31 nM; for `Cc1ncccc1C(C#N)N1CCN(C(=O)CC(NC(=O)c2ccccc2)c2ccccc2)CC1` (stereo not drawn) [N-(3-{4-[Cyano-(2-methyl-pyridin-3-yl)-methyl]-piperazin-1-yl}-3-oxo-1-phenyl-propyl)-benzamide]: 9.1 nM; for `Cc1ncccc1C(C#N)N1CCN(C(=O)[C@@H](C)NC(c2ccccc2)c2ccccc2)CC1` (stereo partly drawn) [{4-[2-(Benzhydryl-amino)-propionyl]-piperazin-1-yl}-(2-methyl-pyridin-3-yl)-acetonitrile]: 30 nM. `Cc1ncccc1C(C#N)N1CCN(C(=O)CC(NCc2ccccc2)c2ccccc2)CC1` (stereo not drawn) [[4-(3-Benzylamino-3-phenyl-propionyl)-piperazin-1-yl]-(2-methyl-pyridin-3-yl)-acetonitrile] registered an IC50 of 9.1 nM.

As to `COC(=O)N(Cc1ccccc1)C(CC(=O)N1CCN(C(C#N)c2cccnc2C)CC1)c1ccccc1` (stereo not drawn) [Benzyl-(3-{4-[cyano-(2-methyl-pyridin-3-yl)-methyl]-piperazin-1-yl}-3-oxo-1-phenyl-propyl)-carbamic acid methyl ester], the half-inhibitory concentration (IC50) was determined as 68 nM.

Take `Cc1ncccc1C(C#N)N1CCN(C(=O)CC(NC(=O)N2CCCC2)c2ccccc2)CC1` (stereo not drawn) [Pyrrolidine-1-carboxylic acid (3-{4-[cyano-(2-methyl-pyridin-3-yl)-methyl]-piperazin-1-yl}-3-oxo-1-phenyl-propyl)-amide]: the IC50 stood at 64 nM. The value for `Cc1ncccc1C(C#N)N1CCN(C(=O)CC(c2ccccc2)N(C)Cc2ccccc2)CC1` (stereo not drawn) [{4-[3-(Benzyl-methyl-amino)-3-phenyl-propionyl]-piperazin-1-yl}-(2-methyl-pyridin-3-yl)-acetonitrile] was 20 nM. The value for `Cc1ncccc1C(C#N)N1CCN(C(=O)CCNC(c2ccccc2)c2ccccc2)CC1` (stereo not drawn) [{4-[3-(Benzhydryl-amino)-propionyl]-piperazin-1-yl}-(2-methyl-pyridin-3-yl)-acetonitrile] was 120 nM; that for `Cc1ncccc1C(C#N)N1CCN(C(=O)CCC(c2ccccc2)c2ccccc2)CC1` (stereo not drawn) [[4-(4,4-Diphenyl-butyryl)-piperazin-1-yl]-(2-methyl-pyridin-3-yl)-acetonitrile] was 80 nM. The same measure for `Cc1ncccc1C(C#N)N1CCN(C(=O)CNC(c2ccccc2)c2ccccc2)CC1` (stereo not drawn) [{4-[2-(Benzhydryl-amino)-acetyl]-piperazin-1-yl}-(2-methyl-pyridin-3-yl)-acetonitrile]: 40 nM. In the case of `CC(=O)N(CC(=O)N1CCN(C(C#N)c2cccnc2C)CC1)C(c1ccccc1)c1ccccc1` (stereo not drawn) [N-Benzhydryl-N-(2-{4-[cyano-(2-methyl-pyridin-3-yl)-methyl]-piperazin-1-yl}-2-oxo-ethyl)-acetamide], the IC50 stood at 20 nM.

On to `Cc1ncccc1C(C#N)N1CCN(C(=O)CC(Nc2ccccc2)c2ccccc2)CC1` (stereo not drawn) [(2-Methyl-pyridin-3-yl)-[4-(3-phenyl-3-phenylamino-propionyl)-piperazin-1-yl]-acetonitrile], for which the IC50 stood at 28 nM. The value for `COC(=O)NC(CC(=O)N1CCN(C(C#N)c2cccnc2C)CC1)c1ccccc1` (stereo not drawn) [(3-{4-[Cyano-(2-methyl-pyridin-3-yl)-methyl]-piperazin-1-yl}-3-oxo-1-phenyl-propyl)-carbamic acid methyl ester] was 41 nM. The value for `C#CCNC(CC(=O)N1CCN(C(C#N)c2cccnc2C)CC1)c1ccccc1` (stereo not drawn) [(2-Methyl-pyridin-3-yl)-[4-(3-phenyl-3-prop-2-ynylamino-propionyl)-piperazin-1-yl]-acetonitrile] was 270 nM.
